“Also recorded” adds a separate entry of the source. Read-outs that look alike come from different tables or passages of the source.
Tests used:
ZACN [1] = target: T1, ZACN (Homo sapiens, UniProt Q401N2); assay: Two-electrode voltage-clamp, ZACN expressed in Xenopus laevis oocytes: inhibition or modulation of spontaneous, zinc-activated and suramin-activated current; format: cell-based; design: host or cells: Xenopus laevis oocytes injected with cRNA (pGEMHE vector, T7 transcript); details: for mode of antagonism: IC50 at 500 μM vs 2 mM Zn2+
T1 sequence (Q401N2 26-412): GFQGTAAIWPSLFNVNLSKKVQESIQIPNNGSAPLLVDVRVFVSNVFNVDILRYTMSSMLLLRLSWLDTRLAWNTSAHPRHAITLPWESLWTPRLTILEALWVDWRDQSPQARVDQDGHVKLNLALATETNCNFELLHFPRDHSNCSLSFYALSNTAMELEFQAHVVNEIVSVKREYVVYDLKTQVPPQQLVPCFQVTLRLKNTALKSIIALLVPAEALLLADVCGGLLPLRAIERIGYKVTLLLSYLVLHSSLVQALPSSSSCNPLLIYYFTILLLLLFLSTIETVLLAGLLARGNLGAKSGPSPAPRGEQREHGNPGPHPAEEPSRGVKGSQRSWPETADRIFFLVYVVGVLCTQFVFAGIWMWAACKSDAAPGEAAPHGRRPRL
Experimental: Stage IV oocytes from Xenopus laevis were injected with Ing of ZACN human mRNA. Prior to recording, oocytes were incubated in the oocyte Ringer's Solution (OR2) with 10 μM D-tubocurarine to inhibit spontaneous channel opening. The oocytes were incubated at 14° C. for three to five days following mRNA injection before recording with two-electrode voltage-clamp. […] Current levels in response to drug applications were normalized to the response to the same concentration of zinc in the absence of the drug. Peak current inhibitions were fitted to the Hill equation to derive IC50 values.
(§1) The cDNA encoding wild type, human ZACN was purchased from OpenBiosystems, and cloned into the pGEMHE vector in the T7 orientation. For cRNA synthesis, cDNA templates were PCR amplified using primers that cover the M13 forward and reverse regions and high fidelity Phusion DNA polymerase (New England Biolab, Ipswich, Mass., USA). PCR products were then purified and served as templates for cRNA synthesis. cRNAs were transcribed by T7 RNA polymerase (Promega, Madison, Wis., USA) using standard in vitro transcription protocols. After digestion of the DNA template by RNase-free DNase I, cRNAs were purified and resuspended in diethyl pyrocarbonate (DEPC)-treated water. cRNA integrity was examined on a 1% agarose gel, and cRNA concentration was determined by optical density measurements at 260 nm using an Eppendorf Biophotometer.
(§2) Oocytes were harvested from female Xenopus laevis (Xenopus I, Ann Arbor, Mich., USA), using the protocol “Xenopus Care and Use” approved by the Institutional Animal Care and Use Committee of the St. Joseph's Hospital and Medical Center. Stage VI oocytes were selected and incubated at 16° C. before injection. Micropipettes for injection were pulled from borosilicate glass (Drummond Scientific, Broomall, Pa., USA) on a Sutter P87 horizontal puller, and the tips were cut with forceps to ≈40 μm in diameter. cRNAs encoding ZACN was drawn up into the micropipette and injected into oocytes with a Nanoject micro-injection system (Drummond Scientific) in a total volume of ˜60 nl and total cRNA of ˜20 ng for each oocyte.
(§3) ValveLink 16 computer-controlled perfusion system was used to switch solutions between the OR2 and a test solution. The perfusion chamber was grounded through an agar salt bridge to avoid alterations in junction potential between the Ag/AgCl grounding electrode and solution when solution/drug changes occurred. Oocytes were voltage-clamped at −70 mV to measure agonist-induced currents using an AxoClamp 900A amplifier (Axon Instruments, Foster City, Calif., USA). The current signal was low-pass filtered at 20 Hz with the built-in 4-pole low-pass Bessel filter and digitized at 100 Hz with a Digidata1440a and pClamp 10 software (Molecular Devices).
(§4) For each oocyte, concentration-inhibition curves for drug-induced inhibition of zinc-activated current responses or concentration response curves for agonist-induced current of the ZACN were fit to the Hill equation using least squares methods (Prism 6.0, GraphPad Software, Inc., San Diego, Calif., USA) to derive IC50 or EC50 values (the concentration required for inducing a half maximal current), Hill coefficients (the slope factor), and maximum current levels in absolute terms. Current levels in each oocyte were normalized to the maximum current in the absence of the inhibitor, allowing normalized data to be averaged across multiple oocytes and to be fit again to the Hill equation. All data are presented as mean±SEM (standard error).

ZACN [2] = target: T1, ZACN; assay: Two-electrode voltage-clamp, ZACN expressed in Xenopus laevis oocytes: agonist-induced current; format: cell-based; design: host or cells: Xenopus laevis oocytes injected with cRNA (pGEMHE vector, T7 transcript)
Text: as §1, §2
as §3, with “Two to 5 days after injection, oocytes expressing ZACN were placed in a home-made, small volume chamber and a 16-channel manifold, continuously perfused with oocyte Ringer's solution (OR2), which consisted of (in mM) 92.5 NaCl, 2.5 KCl, 1 CaCl2, 1 MgCl2 and 5 HEPES, pH 7.5. ValveLink” for “ValveLink”
as §4

Row | Compound | antagonist activity on human ZACN (ZACN [1]) | agonist activity on human ZACN (words) (ZACN [2]) | further results
1 | CCOc1ccccc1OC(c1ccccc1)C1CNCCO1 (centres unmarked) [reboxetine] | acted as antagonists |  | mode of antagonism (ZACN [1]): non-competitive
2 | Cc1cc(-c2ccc(/N=N/c3c(S(=O)(=O)O)cc4cc(S(=O)(=O)O)cc(N)c4c3O)c(C)c2)ccc1/N=N/c1c(S(=O)(=O)O)cc2cc(S(=O)(=O)O)cc(N)c2c1O [Trypan blue] |  | agonists; also recorded: efficacious agonist | 
3 | O=C(Nc1cc(C(=O)Nc2ccc(S(=O)(=O)O)cc2S(=O)(=O)O)cc(C(=O)Nc2ccc(S(=O)(=O)O)cc2S(=O)(=O)O)c1)Nc1cc(C(=O)Nc2ccc(S(=O)(=O)O)cc2S(=O)(=O)O)cc(C(=O)Nc2ccc(S(=O)(=O)O)cc2S(=O)(=O)O)c1 [NF-449] |  | agonist | concentration at which the small high sensitivity component is saturated (ZACN [2]): 1 µM
4 | O=C(Nc1ccc(C(=O)Nc2ccc(C(=O)Nc3ccc(S(=O)(=O)O)c4cc(S(=O)(=O)O)cc(S(=O)(=O)O)c34)cc2)cc1)Nc1ccc(C(=O)Nc2ccc(C(=O)Nc3ccc(S(=O)(=O)O)c4cc(S(=O)(=O)O)cc(S(=O)(=O)O)c34)cc2)cc1 [NF-279] |  | agonists; also recorded: efficacious agonist | 
5 | Cc1c(C2(c3cc(C(C)C)c(O)c(Br)c3C)OS(=O)(=O)c3ccccc32)cc(C(C)C)c(O)c1Br [bromothymol blue] |  | activate the human ZACN | 
6 | Cc1ccc(C(=O)Nc2ccc(S(=O)(=O)O)c3cc(S(=O)(=O)O)cc(S(=O)(=O)O)c23)cc1NC(=O)c1cccc(NC(=O)Nc2cccc(C(=O)Nc3cc(C(=O)Nc4ccc(S(=O)(=O)O)c5cc(S(=O)(=O)O)cc(S(=O)(=O)O)c45)ccc3C)c2)c1 [suramin] |  | agonists; also recorded: efficacious agonist | 
7 | O=C(Nc1cccc(C(=O)Nc2cc(C(=O)Nc3ccc(S(=O)(=O)O)c4cc(S(=O)(=O)O)cc(S(=O)(=O)O)c34)ccc2F)c1)Nc1cccc(C(=O)Nc2cc(C(=O)Nc3ccc(S(=O)(=O)O)c4cc(S(=O)(=O)O)cc(S(=O)(=O)O)c34)ccc2F)c1 [NF-157] |  | efficacious agonist | agonist activity on human ZACN (words) (ZACN [2]; listed as NF157): agonists
8 | Cc1cc(-c2ccc(/N=N/c3ccc4c(S(=O)(=O)O)cc(S(=O)(=O)O)c(N)c4c3O)c(C)c2)ccc1/N=N/c1ccc2c(S(=O)(=O)O)cc(S(=O)(=O)O)c(N)c2c1O [Evans blue] |  | agonists; also recorded: efficacious agonist | 
9 | O=C(Nc1cccc(C(=O)Nc2ccc(S(=O)(=O)O)c3cc(S(=O)(=O)O)cc(S(=O)(=O)O)c23)c1)Nc1cccc(C(=O)Nc2ccc(S(=O)(=O)O)c3cc(S(=O)(=O)O)cc(S(=O)(=O)O)c23)c1 [NF-023] |  | agonist | 
10 | O=S1(=O)OC(c2cc(Br)c(O)c(Br)c2)(c2cc(Br)c(O)c(Br)c2)c2ccccc21 [bromophenol blue] |  | activate the human ZACN | 
11 | CNCCC(Oc1ccc(C(F)(F)F)cc1)c1ccccc1 (centres unmarked) [fluoxetine] | acted as antagonists |  | mode of antagonism (ZACN [1]): non-competitive
12 | brilliant blue |  | activate the human ZACN | 
13 | COc1cc(-c2ccc(/N=N/c3ccc4c(S(=O)(=O)O)cc(S(=O)(=O)O)c(N)c4c3O)c(OC)c2)ccc1/N=N/c1ccc2c(S(=O)(=O)O)cc(S(=O)(=O)O)c(N)c2c1O [Chicago sky blue] |  | activate the human ZACN | 
14 | COc1ccc(C(CN(C)C)C2(O)CCCCC2)cc1 (centres unmarked) [venlafaxine] | acted as antagonists |  | mode of antagonism (ZACN [1]): non-competitive
15 | Nc1ncnc2c1ncn2[C@@H]1O[C@H](COP(=O)(O)OP(=O)(O)OP(=O)(O)O)[C@@H](O)[C@H]1O [ATP] | inhibitor |  | effect on spontaneous current / spontaneous opening (ZACN [1]): inhibits; effect on suramin-activated current (ZACN [1]): positive allosteric modulator; also recorded: potentiates; effect on zinc-activated current (ZACN [1]): antagonist; also recorded: inhibits
16 | pentosan polysulfate |  | agonist of the human ZACN with high efficacy | agonist activity on human ZACN (words) (ZACN [2]; listed as pentosane polysulfate): agonist
17 | heparin |  | agonist | 
18 | O=C(Nc1cc(C(=O)Nc2ccc(S(=O)(=O)O)cc2)cc(C(=O)Nc2ccc(S(=O)(=O)O)cc2)c1)Nc1cc(C(=O)Nc2ccc(S(=O)(=O)O)cc2)cc(C(=O)Nc2ccc(S(=O)(=O)O)cc2)c1 [NF-110] |  | agonist | 
19 | Cc1cc2nc3ccc(N(C)C)cc3[s+]c2cc1N.[Cl-] [toluidine blue] | antagonists |  | high sensitivity component of antagonism, concentration range (ZACN [1]): nano-molar range; low sensitivity form of antagonism, concentration range (ZACN [1]): micromolar range

Further lines, with some results ahead:

Row | antagonist activity on human ZACN (ZACN [1]) | Compound | agonist activity on human ZACN (words) (ZACN [2]) | further results
20 | antagonists | Cc1cc2nc3ccc(N(C)C)cc3nc2cc1N.Cl [neutral red] |  | high sensitivity component of antagonism, concentration range (ZACN [1]): nano-molar range; low sensitivity form of antagonism, concentration range (ZACN [1]): micromolar range
21 | acted as antagonists | CNCC[C@@H](Oc1ccccc1C)c1ccccc1 [tomoxetine] |  | IC50s relative to clinical concentrations (ZACN [1]): clinically relevant concentrations; relative potency / IC50 for the Zn2+-induced current among seven tested antidepressants (ZACN [1]): lower IC50 values; mode of antagonism (ZACN [1]): non-competitive; relative potency / IC50 for the Zn2+-induced current among seven tested antidepressants (ZACN [1]; listed as tomoxentine): most potent antagonists
22 | acted as antagonists | CN(C)CCC=C1c2ccccc2COc2ccccc21 [doxepin] |  | mode of antagonism (ZACN [1]): non-competitive
23 | antagonists | CN(C)c1ccc2nc3ccc(=[N+](C)C)cc-3sc2c1 [methylene blue] |  | high sensitivity component of antagonism, concentration range (ZACN [1]): nano-molar range; low sensitivity form of antagonism, concentration range (ZACN [1]): micromolar range
24 | acted as antagonists | CNCCCN1c2ccccc2CCc2ccccc21 [desipramine] |  | IC50s relative to clinical concentrations (ZACN [1]): clinically relevant concentrations; relative potency / IC50 for the Zn2+-induced current among seven tested antidepressants (ZACN [1]): lower IC50 values; mode of antagonism (ZACN [1]): non-competitive; relative potency / IC50 for the Zn2+-induced current among seven tested antidepressants (ZACN [1]; listed as desipranine): most potent antagonists
25 | acted as antagonists | CN1CCN2c3ccccc3Cc3ccccc3C2C1 (centres unmarked) [mianserin] |  | mode of antagonism (ZACN [1]): non-competitive
